# Numbered stars: 1 amine (or outer) side, 2 acyl side, 3 side chain; on linkers, the order of the positions; unused ones are H or OH. Square brackets hold non-standard residues; d marks the D form. Peptide text beside a SMILES is read from it. * marks the point of attachment. Cha = N[C@@H](CC1CCCCC1)C(=O)O; Tle = CC(C)(C)[C@H](N)C(=O)O; Nicotinoyl = O=C(c1cccnc1)*; PhAc = O=C(Cc1ccccc1)*; CO = O=C([*:1])[*:2]; Bz = O=C(c1ccccc1)*; NHPh = c1ccc(N*)cc1
# Biological target: VLA-4 (Homo sapiens, UniProt P05556+P13612)
# Assay: In vitro binding inhibition of 51Cr-labeled Jurkat cells to solid phase-bound CS-1 compound (SEQ ID NO:1)
# Type: cell-based
# Design: inflammatory cells that contain the VLA-4 receptor [Jurkat cells; host or cells: Jurkat (human T lymphoblastic line)
# Conditions: not given
# Experimental: Binding inhibition is measured here as a concentration of compound that inhibits one-half the binding between a standard number of Jurkat cells and a standard amount of CS-1 compound bound to the surface of a microtiter plate well. Those concentrations are conveniently expressed as IC50 values, smaller numbers indicating a lower concentration required to inhibit 50 percent binding and therefore greater potency. Further specifics of this assay are provided hereinafter.
# Jurkat cells (ATCC TIB 152), a human T lymphoblastic line, labeled with ^51 chromium were used to assay in vitro binding inhibition provided by various compounds discussed herein.
# The plates were prepared as follows: The 25-mer CS-1 compound (SEQ ID NO:1) dissolved at 0.5-1 μg/ml in a buffer of 0.1M NaHCO3 at pH 9.5 that also contained 10 μg/ml of bovine serum albumin (BSA) or a conjugate of the CS-1 compound linked to […] (CS-1-OVA) dissolved at 1-2.5 μg/ml in the same buffer was used as the substrate. Each well of the microtiter plates was coated with 50 μl of substrate or buffer alone for controls. The wells were permitted to dry out completely and were then rinsed twice with PBS at pH 7.4. Non-specific binding sites of each well were then blocked using 200 μl per well of RPMI/1 percent BSA for two hours at room temperature.
# Jurkat cells (3-5×10^6 cells) were placed into a 15 ml Falcon™ round-bottom tube with a cap. The tube was centrifuged, and the extra medium was then removed.
# Two hundred microliters of a ^51 Cr labeling solution were added to the centrifuged cells and maintained in contact with the cells for 90-120 minutes in a warm room. […] Longer contact times provide a greater amount of labeling but lower cell viability.
# The labeled cells are washed with (i) complete medium, (ii) 1 mM EDTA/PBS and then (iii) RPM1/1 percent BSA free of serum components. The cells are centrifuged after each washing. The cells are finally resuspended in serum-free RPMI/1 percent BSA at a concentration of 1×10^6 viable cells/ml, which provides a concentration that is diluted by one-half in the assay.
# Inhibitor compounds are prepared as stock solutions at 20 mg/ml in DMSO in 1.5 ml cryogenic screwcap vials, and were stored at -70° C. Using Flow™ round-bottom or V-bottom microtiter plates, the inhibitor compounds were prepared at twice the assay concentration in RPMI/1 percent BSA at 60 μl/well.
# Four initial dilutions were typically used.
# The ^51 Cr-labeled cells ([…] at 60 μl/well) were then admixed with the diluted compound solutions. The admixtures were maintained at room temperature (about 22° C.) for 30 minutes.
# One hundred microliters of each inhibitor compound/cell admixture were transferred to the substrate-coated wells. This was done in triplicate for each dilution. The resulting plates were incubated for 30 minutes at 37° C. and then washed gently three times with RPMI/1 percent BSA at 200 μl/well. Binding was observed microscopically, particularly after the second wash.
# The bound cells were then lysed by the addition of a 0.5 percent solution of sodium dodecylsulfate in water at 100 μl/well. The resulting solutions were then processed for counting and calculation of IC50 values following usual procedures.
# The data of Table 1 are normalized to the binding of SEQ ID NO: 3. […] Multiple assays for the same compound were averaged.
# VLA-4, sequence (P13612 34-1032): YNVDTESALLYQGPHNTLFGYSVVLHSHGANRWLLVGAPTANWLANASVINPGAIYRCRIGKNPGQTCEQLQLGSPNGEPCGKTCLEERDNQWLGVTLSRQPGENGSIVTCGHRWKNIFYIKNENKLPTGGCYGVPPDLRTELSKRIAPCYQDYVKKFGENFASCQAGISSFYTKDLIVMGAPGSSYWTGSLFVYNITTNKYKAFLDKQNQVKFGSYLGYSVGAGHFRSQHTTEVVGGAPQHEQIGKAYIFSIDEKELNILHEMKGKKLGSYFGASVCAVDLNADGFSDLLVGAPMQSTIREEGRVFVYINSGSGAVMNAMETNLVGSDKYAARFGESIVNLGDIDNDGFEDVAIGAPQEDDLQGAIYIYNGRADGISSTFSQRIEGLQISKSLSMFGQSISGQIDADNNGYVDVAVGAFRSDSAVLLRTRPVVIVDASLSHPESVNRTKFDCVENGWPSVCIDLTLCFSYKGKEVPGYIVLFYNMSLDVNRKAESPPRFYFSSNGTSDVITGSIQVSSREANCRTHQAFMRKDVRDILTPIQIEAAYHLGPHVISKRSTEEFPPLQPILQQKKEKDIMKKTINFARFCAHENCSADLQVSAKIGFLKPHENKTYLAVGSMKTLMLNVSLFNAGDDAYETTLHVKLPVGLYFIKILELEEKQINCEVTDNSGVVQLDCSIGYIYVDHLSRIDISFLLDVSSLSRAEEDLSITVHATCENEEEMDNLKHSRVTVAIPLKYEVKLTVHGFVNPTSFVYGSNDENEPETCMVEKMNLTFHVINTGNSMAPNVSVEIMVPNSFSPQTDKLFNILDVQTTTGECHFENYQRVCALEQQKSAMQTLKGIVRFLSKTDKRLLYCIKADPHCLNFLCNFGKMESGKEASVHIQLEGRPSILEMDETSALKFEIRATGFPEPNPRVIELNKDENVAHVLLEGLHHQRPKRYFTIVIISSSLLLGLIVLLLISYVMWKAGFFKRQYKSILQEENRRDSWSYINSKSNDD
# VLA-4, sequence (P05556 21-798): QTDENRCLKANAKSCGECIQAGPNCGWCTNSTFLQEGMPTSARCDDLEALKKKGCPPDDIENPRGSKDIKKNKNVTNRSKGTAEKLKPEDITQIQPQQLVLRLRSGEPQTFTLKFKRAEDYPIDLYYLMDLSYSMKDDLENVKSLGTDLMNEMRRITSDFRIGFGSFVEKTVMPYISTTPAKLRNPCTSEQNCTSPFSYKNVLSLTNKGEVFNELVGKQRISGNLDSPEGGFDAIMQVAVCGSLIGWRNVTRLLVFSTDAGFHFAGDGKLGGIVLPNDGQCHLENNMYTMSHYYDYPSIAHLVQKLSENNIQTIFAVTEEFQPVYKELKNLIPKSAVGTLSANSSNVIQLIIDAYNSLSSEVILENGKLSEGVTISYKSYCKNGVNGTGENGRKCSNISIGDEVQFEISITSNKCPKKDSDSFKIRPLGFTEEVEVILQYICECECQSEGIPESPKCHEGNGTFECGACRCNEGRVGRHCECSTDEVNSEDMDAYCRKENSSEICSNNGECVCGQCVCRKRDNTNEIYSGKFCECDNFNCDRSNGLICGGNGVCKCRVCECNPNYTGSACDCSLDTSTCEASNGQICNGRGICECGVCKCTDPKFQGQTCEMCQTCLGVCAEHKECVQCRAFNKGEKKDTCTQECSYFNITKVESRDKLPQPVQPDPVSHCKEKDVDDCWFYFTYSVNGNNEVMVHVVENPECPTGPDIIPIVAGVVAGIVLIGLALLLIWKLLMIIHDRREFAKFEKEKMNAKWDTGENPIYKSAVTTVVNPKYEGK
row,Relative Potency,SMILES
1,3.13,Cc1cccc(C)c1C(=O)N[C@@H](CC(C)C)C(=O)N[C@@H](CC(=O)O)C(=O)N[C@H](C(=O)N1CCC[C@@H]1C(N)=O)C(C)C [896.36]
2,5.01,Cc1ccc(C(=O)N[C@@H](CC(C)C)C(=O)N[C@@H](CC(=O)O)C(=O)N[C@H](C(=O)N2CCC[C@@H]2C(N)=O)C(C)C)cc1C [896.37]
3,6.57,Cc1cccc(C(=O)N[C@@H](CC(C)C)C(=O)N[C@@H](CC(=O)O)C(=O)N[C@H](C(=O)N2CCC[C@@H]2C(N)=O)C(C)C)c1C [896.38]
4,5.32,CC(C)C[C@H](NC(=O)CCc1ccccc1)C(=O)N[C@@H](CC(=O)O)C(=O)N[C@H](C(=O)N1CCC[C@@H]1C(N)=O)C(C)C [896.40]
5,38.1,CC(C)C[C@H](NC(=O)c1cccnc1)C(=O)N[C@@H](CC(=O)O)C(=O)N[C@H](C(=O)N1CCC[C@@H]1C(N)=O)C(C)C [896.42]
6,2.5,CC(C)C[C@H](NC(=O)c1ccc2ccccc2c1)C(=O)N[C@@H](CC(=O)O)C(=O)N[C@H](C(=O)N1CCC[C@@H]1C(N)=O)C(C)C [896.44]
7,1.75,CC(C)C[C@H](NC(=O)CCC1CCCCC1)C(=O)N[C@@H](CC(=O)O)C(=O)N[C@H](C(=O)N1CCC[C@@H]1C(N)=O)C(C)C [896.45]
8,6.57,CCC(C)CC(=O)N[C@@H](CC(C)C)C(=O)N[C@@H](CC(=O)O)C(=O)N[C@H](C(=O)N1CCC[C@@H]1C(N)=O)C(C)C (stereo partly drawn) [896.46]
9,5.01,CC(C)CCC(=O)N[C@@H](CC(C)C)C(=O)N[C@@H](CC(=O)O)C(=O)N[C@H](C(=O)N1CCC[C@@H]1C(N)=O)C(C)C [896.47]
10,3.76,CC(C)C[C@H](NC(=O)CC1CCCCC1)C(=O)N[C@@H](CC(=O)O)C(=O)N[C@H](C(=O)N1CCC[C@@H]1C(N)=O)C(C)C [896.48]
11,9.08,CC(C)C[C@H](NC(=O)C1CCCCC1)C(=O)N[C@@H](CC(=O)O)C(=O)N[C@H](C(=O)N1CCC[C@@H]1C(N)=O)C(C)C [896.49]
12,1.38,CC(C)C[C@H](NC(=O)C12CC3CC(CC(C3)C1)C2)C(=O)N[C@@H](CC(=O)O)C(=O)N[C@H](C(=O)N1CCC[C@@H]1C(N)=O)C(C)C [896.50]
13,110,CC(C)C[C@@H](C(=O)N[C@@H](CC(=O)O)C(=O)N[C@H](C(=O)N1CCC[C@@H]1C(N)=O)C(C)C)N1C(=O)c2ccccc2C1=O [896.51]
14,13,CC(C)C[C@H](NC(=O)c1ccccn1)C(=O)N[C@@H](CC(=O)O)C(=O)N[C@H](C(=O)N1CCC[C@@H]1C(N)=O)C(C)C [896.54]
15,105,CC(C)C[C@H](NC(=O)c1cccnc1)C(=O)N[C@@H](CC(=O)O)C(=O)N[C@@H](Cc1ccccc1)C(=O)N1CCC[C@@H]1C(N)=O [896.55] (Nicotinoyl-LDF[dP]-NH2)

# The next lines start with the molecule.
row,SMILES,Relative Potency
1,CC[C@H](C)[C@H](N)C(=O)N[C@@H](CC(C)C)C(=O)N[C@@H](CC(=O)O)C(=O)N[C@H](C(=O)N1CCC[C@H]1C(N)=O)C(C)C [886.03],1.55
2,CC[C@H](C)[C@H](N)C(=O)N[C@@H](CC(C)C)C(=O)N[C@@H](CC(=O)O)C(=O)N[C@H](C(=O)N1CCC[C@H]1C(=O)O)C(C)C [886.05] (H-ILDVP-OH),2
3,CC[C@H](C)[C@H](N)C(=O)N[C@@H](CC(C)C)C(=O)N[C@@H](CC(=O)O)C(=O)N[C@H](C(=O)N1CCC[C@@H]1C(N)=O)C(C)C [886.10],5.38
4,CC[C@H](C)[C@H](N)C(=O)N[C@@H](CC(C)C)C(=O)N[C@@H](CC(=O)O)C(=O)N[C@@H](Cc1ccccc1)C(=O)N1CCC[C@@H]1C(N)=O [896.26] (H-ILDF[dP]-NH2),5.63
5,CC(C)C[C@H](NC(=O)[C@@H](N)Cc1ccccc1)C(=O)N[C@@H](CC(=O)O)C(=O)N[C@@H](Cc1ccccc1)C(=O)N1CCC[C@@H]1C(N)=O [896.27] (H-FLDF[dP]-NH2),16.9
6,CC[C@H](C)[C@H](N)C(=O)N[C@@H](CC1CCCCC1)C(=O)N[C@@H](CC(=O)O)C(=O)N[C@@H](Cc1ccccc1)C(=O)N1CCC[C@@H]1C(N)=O [896.29] (H-I[Cha]DF[dP]-NH2),2.27
7,NC(=O)[C@H]1CCCN1C(=O)[C@H](Cc1ccccc1)NC(=O)[C@H](CC(=O)O)NC(=O)[C@H](CC1CCCCC1)NC(=O)[C@@H](N)Cc1ccccc1 [896.30] (H-F[Cha]DF[dP]-NH2),2.69
8,CC[C@H](C)[C@H](N)C(=O)N[C@@H](CC1CCCCC1)C(=O)N[C@@H](CC(=O)O)C(=O)N[C@H](C(=O)N1CCC[C@@H]1C(N)=O)C(C)C [896.32] (H-I[Cha]DV[dP]-NH2),1.41
9,CC(C)[C@H](NC(=O)[C@H](CC(=O)O)NC(=O)[C@H](CC1CCCCC1)NC(=O)[C@@H](N)Cc1ccccc1)C(=O)N1CCC[C@@H]1C(N)=O [896.33] (H-F[Cha]DV[dP]-NH2),2.61
10,CC(C)C[C@H](NC(=O)Nc1ccccc1)C(=O)N[C@@H](CC(=O)O)C(=O)N[C@@H](Cc1ccccc1)C(=O)N1CCC[C@@H]1C(N)=O [896.62] ({NHPh-CO}-LDF[dP]-NH2),257

# Same assay, conditions: binding inhibition potency relative to standard compound of SEQ ID NO:3 = 1 (normalized IC50); about one-tenth or less assigned zero
row,SMILES,Relative Potency
1,CC(C)C[C@H](NC(=O)c1ccccc1)C(=O)N[C@@H](CC(=O)O)C(=O)N[C@@H](Cc1ccccc1)C(=O)N1CCC[C@@H]1C(N)=O [896.28] (Bz-LDF[dP]-NH2),44.6
2,NC(=O)[C@H]1CCCN1C(=O)[C@H](Cc1ccccc1)NC(=O)[C@H](CC(=O)O)NC(=O)[C@H](CC1CCCCC1)NC(=O)c1ccccc1 [896.31] (Bz-[Cha]DF[dP]-NH2),11
3,CC(C)[C@H](NC(=O)[C@H](CC(=O)O)NC(=O)[C@H](CC1CCCCC1)NC(=O)c1ccccc1)C(=O)N1CCC[C@@H]1C(N)=O [896.34] (Bz-[Cha]DV[dP]-NH2),6.73
4,CC(C)C[C@H](NC(=O)c1ccccc1)C(=O)N[C@@H](CC(=O)O)C(=O)N[C@H](C(=O)N1CCC[C@H]1C(N)=O)C(C)C [896.35],16
5,CC(C)C[C@H](NC(=O)Cc1ccccc1)C(=O)N[C@@H](CC(=O)O)C(=O)N[C@H](C(=O)N1CCC[C@@H]1C(N)=O)C(C)C [896.39],47.5
6,CC(C)C[C@H](NC(=O)/C=C/c1ccccc1)C(=O)N[C@@H](CC(=O)O)C(=O)N[C@H](C(=O)N1CCC[C@@H]1C(N)=O)C(C)C [896.41],1.97
7,CC(C)C[C@H](NC(=O)c1cccc2ccccc12)C(=O)N[C@@H](CC(=O)O)C(=O)N[C@H](C(=O)N1CCC[C@@H]1C(N)=O)C(C)C [896.43],4.38
8,CC(C)C[C@H](NC(=O)Cc1ccccc1)C(=O)N[C@@H](CC(=O)O)C(=O)N[C@H](C(=O)N1CCC[C@@H]1C(N)=O)C(C)(C)C [896.56] (PhAc-LD[Tle][dP]-NH2),1.72
9,CC(C)C[C@H](NC(=O)Cc1ccccc1)C(=O)N[C@@H](CS)C(=O)N[C@@H](Cc1ccccc1)C(=O)N1CCC[C@@H]1C(N)=O [896.59] (PhAc-LCF[dP]-NH2),0
10,CC(C)C[C@H](NC(=O)Cc1ccccc1)C(=O)N[C@@H](CC(=O)O)C(=O)N[C@@H](Cc1c[nH]c2ccccc12)C(=O)N1CCC[C@@H]1C(N)=O [896.60] (PhAc-LDW[dP]-NH2),131
11,CC(C)C[C@H](NC(=O)Cc1ccccc1)C(=O)N[C@@H](CC(=O)O)C(=O)N[C@@H](Cc1ccc(O)cc1)C(=O)N1CCC[C@@H]1C(N)=O [896.61] (PhAc-LDY[dP]-NH2),612

# Reference: patent publication US5770573A, “CS-1 peptidomimetics, compositions and methods of using the same” (Cytel Corporation, priority 1995, dated 1998)
